Test results: patent publication US20250230193A1, “CYCLIC COMPOUND HAVING SELECTIVE KRAS INHIBITORY EFFECT ON HRAS AND NRAS” (CHUGAI SEIYAKU KABUSHIKI KAISHA, priority 2022, published 2025)

How the values were obtained:
[1] = target: GDP-bound HRAS wild-type protein (Homo sapiens, UniProt P01112); test: Binding to HRAS by surface plasmon resonance (SPR), Single Cycle Kinetics; settings: for HRAS/KRAS (ratio of KD value with respect to HRAS to KD value with respect to KRAS): GDP-bound HRAS wild-type vs GDP-bound KRAS wild-type
[2] = target: GDP-bound NRAS wild-type protein (Homo sapiens, UniProt P01111); test: Binding to NRAS by surface plasmon resonance (SPR), Single Cycle Kinetics; settings: for NRAS/KRAS (ratio of KD value with respect to NRAS to KD value with respect to KRAS): GDP-bound NRAS wild-type vs GDP-bound KRAS wild-type
[3] = SPR, GDP-bound wild-type proteins

GDP-bound HRAS wild-type protein, sequence (P01112 whole entry): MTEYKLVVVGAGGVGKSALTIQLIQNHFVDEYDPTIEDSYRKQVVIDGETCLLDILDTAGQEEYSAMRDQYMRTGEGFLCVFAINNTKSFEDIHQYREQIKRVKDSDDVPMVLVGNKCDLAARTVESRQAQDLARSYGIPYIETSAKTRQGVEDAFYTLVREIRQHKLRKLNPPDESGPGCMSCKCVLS
GDP-bound NRAS wild-type protein, sequence (P01111 whole entry): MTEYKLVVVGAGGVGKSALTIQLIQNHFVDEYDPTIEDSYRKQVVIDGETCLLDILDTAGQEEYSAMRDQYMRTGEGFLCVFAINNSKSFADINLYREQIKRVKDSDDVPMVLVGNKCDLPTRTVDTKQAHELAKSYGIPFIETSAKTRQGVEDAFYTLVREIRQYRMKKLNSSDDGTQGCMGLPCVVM

`CC[C@H](C)[C@@H]1NC(=O)[C@H](Cc2cccc(F)c2)N(C)C(=O)C[C@@H](C(=O)N2CCOCC2)N(C)C(=O)[C@H](C2CCCC2)N(C)C(=O)C2(CCCC2)NC(=O)[C@@H]2CCCN2C(=O)[C@H](CCc2ccc(C(F)(F)F)c(Cl)c2)NC(=O)CN(C)C(=O)[C@H](Cc2ccc(F)cc2)N2CCCCC[C@@H](C2=O)N(C)C(=O)CN(C)C1=O` [PP0962] was tested. Which “HRAS/KRAS (ratio of KD value with respect to HRAS to KD value with respect to KRAS)” value ([1]; SPR) did it give?
Its value is “B (a compound having 3 or more and less than 10 is denoted as B)”.

What about the “NRAS/KRAS (ratio of KD value with respect to NRAS to KD value with respect to KRAS)” value ([2]; SPR) of the same molecule?
Its value is “B (a compound having 3 or more and less than 10 is denoted as B)”.

How did the “HRAS/KRAS (ratio of KD value with respect to GDP-bound HRAS wild-type protein to KD value with respect to KRAS)” value ([1]; SPR) turn out when `CC[C@H](C)[C@@H]1NC(=O)[C@H](CC(C)C)N(C)C(=O)C[C@@H](C(=O)N2CCOCC2)NC(=O)[C@H](C2CCCC2)N(C)C(=O)C2(CCCC2)NC(=O)[C@@H]2CCCN2C(=O)[C@H](CCc2cc(F)c(C(F)(F)F)c(F)c2)NC(=O)CN(C)C(=O)[C@H](Cc2ccc(C(F)(F)F)cc2)N2CCCCC[C@@H](C2=O)N(C)C(=O)CN(C)C1=O` [PP0479] was run?
Its value is “B (a compound having 3 or more and less than 10 is denoted as B)”.

What about the “NRAS/KRAS (ratio of KD value with respect to GDP-bound NRAS wild-type protein to KD value with respect to KRAS)” value ([2]; SPR) of the same molecule?
The value was “B (a compound having 3 or more and less than 10 is denoted as B)”.

Which “HRAS/KRAS (ratio of KD value with respect to HRAS to KD value with respect to KRAS)” value ([1]; SPR) does the source give for `CCO[C@@H]1C[C@H]2C(=O)NC3(CCC3)C(=O)N(C)[C@@H](C3CCCC3)C(=O)N(C)[C@H](C(=O)N(C)C)CC(=O)N(C)[C@@H](CC(F)F)C(=O)N[C@@H]([C@@H](C)CC)C(=O)N(C)CC(=O)N(C)[C@H]3CCCCCN(C3=O)[C@@H](Cc3ccc(F)cc3)C(=O)N(C)CC(=O)N[C@@H](CCc3cc(F)c(C(F)(F)F)c(F)c3)C(=O)N2C1` [PP1191] here?
Its value is “B (a compound having 3 or more and less than 10 is denoted as B)”.

What about the “NRAS/KRAS (ratio of KD value with respect to NRAS to KD value with respect to KRAS)” value ([2]; SPR) of the same molecule?
Its value is “A (a compound having 10 or more and less than 20 is denoted as A)”.

What does the source list for `CCC[C@H]1C(=O)N[C@@H]([C@@H](C)CC)C(=O)N(C)CC(=O)N(C)[C@H]2C/C=C\CCN(C2=O)[C@@H](Cc2ccc(C)cc2)C(=O)N(C)CC(=O)N[C@@H](CCc2ccc(Cl)c(C(F)(F)F)c2)C(=O)N2C[C@H](OCC)C[C@H]2C(=O)NC2(CC(C)(C)C2)C(=O)N(C)[C@@H](C2CCCC2)C(=O)N(C)[C@H](C(=O)N(C)C)CC(=O)N1C` [PP2786]?
HRAS/KRAS (ratio of KD value with respect to GDP-bound HRAS wild-type protein to KD value with respect to KRAS) ([1]; class symbols): A (a compound having 10 or more and less than 20 is denoted as A); NRAS/KRAS (ratio of KD value with respect to GDP-bound NRAS wild-type protein to KD value with respect to KRAS) ([2]; class symbols): A (a compound having 10 or more and less than 20 is denoted as A)

Which results are given for `CCC[C@H]1C(=O)N[C@@H]([C@@H](C)CC)C(=O)N2CCC[C@H]2C(=O)N(C)[C@H]2C/C=C\CCN(C2=O)[C@@H](Cc2ccc(C)cc2)C(=O)N(C)CC(=O)N[C@@H](CCc2ccc(C(F)(F)F)c(OC)c2)C(=O)N2C[C@H](OCC)C[C@H]2C(=O)N(C)C2(CCC2)C(=O)N(C)[C@@H](C2CCCC2)C(=O)N(C)[C@H](C(=O)N2CCCCC2)CC(=O)N1C` [PP3100, (1S,4S,10S,13S,17S,20S,26S,28R,32S,38S,42Z)-20-cyclopentyl-28-ethoxy-32-[2-[3-methoxy-4-(trifluoromethyl)phenyl]ethyl]-2,14,18,21,24,36-hexamethyl-10-[(1S)-1-methylpropyl]-17-(piperidine-1-carbonyl)-13-propyl-38-(p-tolylmethyl)spiro[2,8,11,14,18,21,24,30,33,36,39-undecazatetracyclo[37.5.1.0^4,8.0^26,30]pentatetracont-42-ene-23,1′-cyclobutane]-3,9,12,15,19,22,25,31,34,37,45-undecone]?
HRAS/KRAS (ratio of KD value with respect to GDP-bound HRAS wild-type protein to KD value with respect to KRAS) [1, 3]: B (a compound having 3 or more and less than 10 is denoted as B); NRAS/KRAS (ratio of KD value with respect to GDP-bound NRAS wild-type protein to KD value with respect to KRAS) [2, 3]: A (a compound having 10 or more and less than 20 is denoted as A)

Which “HRAS/KRAS (ratio of KD value with respect to HRAS to KD value with respect to KRAS)” value ([1]; SPR) does the source give for `CC[C@H](C)[C@@H]1NC(=O)[C@H](CC(C)C)N(C)C(=O)C[C@@H](C(=O)N2CCOCC2)N(C)C(=O)[C@H](C2CCCC2)N(C)C(=O)C2(CCC2)NC(=O)[C@@H]2[C@@H](OCC3CCCC3)CCN2C(=O)[C@H](CCc2cc(F)c(C(F)(F)F)c(F)c2)NC(=O)CN(C)C(=O)[C@H](Cc2ccc(C(F)(F)F)cc2)N2CCCC[C@@H](C2=O)N(C)C(=O)CN(C)C1=O` [PP1073] here?
The value was “B (a compound having 3 or more and less than 10 is denoted as B)”.

And the “NRAS/KRAS (ratio of KD value with respect to NRAS to KD value with respect to KRAS)” value ([2]; SPR)?
The value was “B (a compound having 3 or more and less than 10 is denoted as B)”.
